In brackets after ≈: the same amount, converted by molar mass.
Experiments:
[1] = species: Cavia porcellus; assay: Evaluated in vitro for complement activity using guinea pig serum was determined by cap 50 assay; format: functional; details: for EC50: read-out: ED50 (the source's name)
[2] = Inhibition of the complement alternative pathway by Mercaptan-treated human erythrocytes lyse in autologous serum via the alternative pathway activated by cobra venom factor in the presence of appropriate serial twofold dilutions of the test compound
[3] = tested on: Cavia porcellus; assay: Evaluated in vivo after intraperitoneal administration by guinea pig assay; format: functional
[4] = species: Homo sapiens; assay: The ability to inhibit late component of human complement (C3-C9) using C-late assay
[5] = species: Homo sapiens; assay: Ability to destroy fluid-phase human complement 1 in the presence of complement 4 with appropriate serial twofold dilutions of the test compound using C1 assay

Row | Compound | EC50 [1] | ED50 [2] | Inhibition [3] | ED50 [4] | ED50 [5] | Activity [1]
1 | O=S(=O)([O-])c1cc(NS(=O)(=O)c2ccc3c(S(=O)(=O)Nc4cc(S(=O)(=O)[O-])cc(S(=O)(=O)[O-])c4)cc(S(=O)(=O)Nc4cc(S(=O)(=O)[O-])cc(S(=O)(=O)[O-])c4)cc3c2)cc(S(=O)(=O)[O-])c1.[Na+].[Na+].[Na+].[Na+].[Na+].[Na+] | 21 µg/mL | 21 µg/mL | 86% | 12 µg/mL | 0.7 µg/mL | –
2 | Nc1ccc2cc(S(=O)(=O)[O-])cc(O)c2c1/N=N/c1ccc(NC(=O)Nc2ccc(/N=N/c3c(N)ccc4cc(S(=O)(=O)[O-])cc(O)c34)c(S(=O)(=O)[O-])c2)cc1S(=O)(=O)[O-].[Na+].[Na+].[Na+].[Na+] | – | 167 µg/mL | >95% | 6 µg/mL | 21 µg/mL | 113 µg/mL
3 | Cc1ccc(C(=O)Nc2ccc(S(=O)(=O)O)c3cc(S(=O)(=O)O)cc(S(=O)(=O)O)c23)cc1NC(=O)c1cccc(NC(=O)Nc2cccc(C(=O)Nc3cc(C(=O)Nc4ccc(S(=O)(=O)O)c5cc(S(=O)(=O)O)cc(S(=O)(=O)O)c45)ccc3C)c2)c1 [SURAMIN] | 603 µg/mL (≈ 465 µM) | 167 µg/mL | 44% | 50 µg/mL (≈ 38.5 µM) | 21 µg/mL | –
